# Source: ChEMBL document CHEMBL1130169, “Validation of EGSITE2, a mixed integer program for deducing objective site models for experimental binding data” (J Med Chem, 1997)
# Molecular target: T1, Sex hormone-binding globulin (Homo sapiens) (UniProt P04278)
# T1 sequence (whole entry): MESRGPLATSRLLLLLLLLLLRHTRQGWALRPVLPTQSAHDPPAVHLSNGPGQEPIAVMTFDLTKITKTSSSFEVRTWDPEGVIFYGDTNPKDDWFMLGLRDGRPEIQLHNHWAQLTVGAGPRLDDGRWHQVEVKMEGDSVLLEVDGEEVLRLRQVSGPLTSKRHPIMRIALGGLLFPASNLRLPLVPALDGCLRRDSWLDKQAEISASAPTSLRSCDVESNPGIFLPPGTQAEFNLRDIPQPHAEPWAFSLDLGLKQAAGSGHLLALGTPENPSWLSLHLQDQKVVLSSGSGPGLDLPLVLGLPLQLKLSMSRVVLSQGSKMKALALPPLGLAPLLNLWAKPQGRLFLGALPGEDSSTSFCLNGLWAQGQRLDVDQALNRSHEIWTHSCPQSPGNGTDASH
# Description: Binding affinity towards human testosterone binding globulin.
row,SMILES,-Log Kdiss
1,C[C@]12CCC(=O)C=C1CC[C@@H]1[C@@H]2CC[C@@]2(C)[C@H]1CC[C@]2(O)C(=O)CO,6.2
2,C[C@]12CC[C@@H](O)C[C@@H]1CC[C@@H]1[C@@H]2CC[C@]2(C)C(=O)CC[C@@H]12,6.15
3,CC(=O)[C@H]1CC[C@H]2[C@@H]3CCC4=CC(=O)CC[C@]4(C)[C@H]3CC[C@]12C,5.94
4,C[C@]12CC[C@H](O)CC1=CCC1C2CC[C@]2(C)C(=O)CCC12 (some centres undefined),6.82
5,CC(=O)[C@@]1(O)CC[C@H]2[C@@H]3CCC4=CC(=O)CC[C@]4(C)[C@H]3CC[C@@]21C,6
6,C[C@]12CCC(=O)C=C1CC[C@@H]1[C@@H]2CC[C@]2(C)C(=O)CC[C@@H]12,6.46
7,C[C@]12CCC(=O)C[C@@H]1CC[C@@H]1[C@@H]2CC[C@]2(C)[C@@H](O)CC[C@@H]12,8.74
8,C[C@]12C[C@H](O)[C@H]3[C@@H](CCC4=CC(=O)CC[C@@]43C)[C@@H]1CC[C@@H]2C(=O)CO,5.34
9,C[C@]12CC[C@H]3[C@@H](CCC4=CC(=O)CC[C@@]43C)[C@@H]1CC[C@@H]2O,8.2
10,CC(=O)[C@H]1CC[C@H]2[C@@H]3CC=C4C[C@@H](O)CC[C@]4(C)[C@H]3CC[C@]12C,6.15
11,C[C@]12CCC(=O)C=C1CCC1C3CC[C@H](C(=O)CO)[C@@]34C[C@H](OC4O)C12 (some centres undefined),4.32
12,C[C@]12CCC(=O)C=C1CC[C@@H]1[C@@H]2C(=O)C[C@@]2(C)[C@H]1CC[C@]2(O)C(=O)CO,5.43
13,C[C@]12CCC3C(CC[C@@H]4CC(O)=CC[C@]34C)C1CCC2=O (some centres undefined),5.15
14,"C[C@]12CC[C@@H]3c4ccc(O)cc4CCC3[C@@H]1CCC2=O (single isomer, unassigned)",7.18
15,C[C@]12CC[C@@H]3c4ccc(O)cc4CC[C@H]3[C@@H]1C[C@@H](O)[C@@H]2O,5.63
16,C[C@]12CCC(=O)C=C1CC[C@@H]1[C@@H]2[C@@H](O)C[C@@]2(C)[C@H]1CC[C@]2(O)C(=O)CO,5.2
17,C[C@]12CC[C@H]3[C@@H](CCC4=CC(=O)CC[C@@]43C)[C@@H]1CC[C@@H]2C(=O)CO,6.38
18,C[C@]12CC[C@H](O)C[C@@H]1CC[C@@H]1[C@@H]2CC[C@]2(C)[C@@H](O)CC[C@@H]12,8.11
19,CC(=O)[C@@]1(O)CC[C@H]2[C@@H]3CC=C4C[C@@H](O)CC[C@]4(C)[C@H]3CC[C@@]21C,5.36
